Test results from patent US12214008B2, “Protein interfaces” (SyntheX, Inc., priority 2016, dated 2025).
Entries after “also recorded” stand apart in the source; their conditions may differ. Residues, ends and D or L forms follow the SMILES beside them. Groups on a side chain read outwards from the residue. *: point of attachment. 5FAM = O=C1OC2(c3ccc(O)cc3Oc3cc(O)ccc32)c2ccc(C(=O)*)cc21; Ahx = NCCCCCC(=O)O

Tests used:
[1] = system: SSP-25 cells; assay: xCELLigence cell death assay; assay type: cell-based; conditions: for rescue of compound 10-induced cell death by ruthenium red: 40 μM Ruthenium red added to cells treated with 10 μM compound 10
Procedure: Further, singly-dosed cells continued to recover, which indicated reduced general cytotoxicity of the compound in the media or the lysed cells.
To optimize cellular activity, compounds were tested in xCELLigence cell death assays against various cell lines. An example of the workflow used is shown using A549 cells and compound 10 in FIGS. 15 and 16. […] Data from xCELLigence traces at different compound concentrations from FIG. 15 was then used to generate a dose-response curve, which was then subjected to nonlinear regression using a sigmoidal dose-response model to generate IC50s and R2 values for cell death for each compound/cell line combination (FIG. 16).
To further investigate the hypothesis that peptide binding to RAD51 in cells causes cell death via increases in intracellular free calcium levels, compound 10 alone and in combination with two different intracellular calcium chelators (1,2-Bis(2-aminophenoxy) ethane-N,N,N′,N′-tetraacetic acid tetrakis(acetoxymethyl ester) aka “BAPTA-AM”, and ammoniated ruthenium oxychloride aka “ruthenium red”) was tested in an xCELLigence™ cell death assay as in Example 3. The intracellular calcium chelators alone were also evaluated on the cells.

[2] = system: SSP-25 cells; assay: MTT growth inhibition assay; assay type: cell-based; conditions: 5 μM or 10 μM, 48 hours of cell growth, vs water mock
Procedure: To assess the growth inhibitory properties of compounds disclosed herein, 5 μM or 10 μM of compounds 1, 3, and 5 were tested against a water mock treatment for growth inhibition of SSP-25 cells using an MTT assay after 48 hours of cell growth.

[3] = system: HeLa; conditions: compound 5 at 5 μM, compound 1 at 10 μM
Procedure: (§1) To assess the specificity of compounds disclosed herein in targeting cancers with mutations in the BRCA2 pathway, compounds 1 and 5 were tested against HeLa (human cervical cancer) and SSP-25 cells (cholangiocarcinoma cell line) (FIG. 2). To measure killing of the cells by compounds 1 and 5, a cell stain (CytoTox Red™) was used, which can be measured spectrophotometrically, and is indicative of cell viability. First, 5,000 cells were incubated in 96-well culture plates overnight. The media (RPMI with 10% FBS) was removed and replaced with serum free media (RPMI) containing 125 nM CytoTox Red™. FITC-labeled compounds 5 and 1 were added to concentrations of 5 μM and 10 μM, respectively, and imaging commenced using an IncuCyte™ instrument using 15 minute time points. 2× serum-containing media was added after one hour incubation, and the cells were imaged every 2 hours. To detect CytoTox Red™ the following parameters were used: Excitation Wavelength: 585 nm; Passband: [565,605] nm and Emission Wavelength: 635 nm; Passband: [625, 705] nm. To detect compounds 5 and 1 using the FITC label, the following parameters were used: Excitation Wavelength: 460 nm; Passband: [440,480] nm and Emission Wavelength: 524 nm; Passband: [504,544] nm was used.

[4] = system: SSP-25 cells; conditions: compound 5 at 5 μM, compound 1 at 10 μM; vs PBS
Procedure: as §1

[5] = system: GM08505, Blm cells
Procedure: To assess the ability of compounds disclosed herein to rescue the drug-sensitivity of Bloom's Syndrome patient cells, GM08505, Blm cells were treated with PBS, 5 μM etoposide, or 5 μM etoposide and 10 μM compound 5.

[6] = molecular target: T1, RAD51 (Homo sapiens, UniProt Q06609); assay: microscale thermophoresis; assay type: binding; conditions: 0 vs 1 mM Ca2+
T1 sequence (Q06609 1-339): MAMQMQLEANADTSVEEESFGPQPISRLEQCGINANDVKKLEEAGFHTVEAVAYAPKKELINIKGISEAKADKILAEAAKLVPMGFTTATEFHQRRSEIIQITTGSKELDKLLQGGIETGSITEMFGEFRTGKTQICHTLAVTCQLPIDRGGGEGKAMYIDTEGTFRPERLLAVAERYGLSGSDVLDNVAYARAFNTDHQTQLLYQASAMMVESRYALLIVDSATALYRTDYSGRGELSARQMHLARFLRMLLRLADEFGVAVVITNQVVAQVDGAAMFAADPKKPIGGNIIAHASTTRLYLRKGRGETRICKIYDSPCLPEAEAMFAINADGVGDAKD
Procedure: To test the interaction between calcium binding and peptide binding to RAD51, the Kds of active (Compound 5, 10) peptides for RAD51 were tested by a microscale thermophoresis assay, and the Kd of compound 5 was additionally performed in the presence of 1 mM calcium.
Microscale thermophoresis was performed as previously described (see, for e.g. Jerabek-Willemsen, M., Wienken, C. J., Braun, D., Baaske, P. & Duhr, S. Molecular interaction studies using microscale thermophoresis. Assay Drug Dev. Technol. 9, 342-353 (2011)). The affinity of the Compound was measured using the Monolith NT.115 from Nanotemper Technologies. Rad51 was fluorescently labelled according to the manufacturer's protocol and the labelled protein used for each assay was about 500 nM. A solution of unlabelled peptide was diluted for appropriate serial concentration gradient. The samples were loaded into silica capillaries (Polymicro Technologies). Measurements were performed at room temperature in buffer containing PBS, 0.1% Tween 20, 0.5 mM ATP, 2.5 uM ssDNA, with 1 mM CaCl2 (when mentioned). Measurements were done using 12% LED power and 60% MST power. The assays were repeated three times for each affinity measurement. Data analyses were performed using Nanotemper Analysis software and OriginPro 8.0 software provided by the manufacturer.

[7] = system: PC3 cells; assay: xCELLigence cell death assay; conditions: 60 μM at 24 hours
Procedure: First, 5,000 PC3 cells were plated, and adherence and growth was measured for 24 hours using live measurements of current impedance through the plate using the xCELLigence™ instrument. […] This was repeated again at the 124 hour mark.

[8] = system: SSP-25 cells; assay: growth assay (percent confluence); assay type: cell-based; conditions: 5 μM or 10 μM, compared to PBS
Procedure: A growth assay was performed using SSP-25 cells with 5 μM or 10 μM of compound 1. […] The experimental protocol described in Example 3 was used for the growth assay.
The same growth assay was repeated using 10 μM of compound 1 and compound 2. Compound 2 contains a single substitution within the core consensus sequence, which interrupts the binding of compound 2 to RAD51.

CC(=O)OCOC(=O)CN(CC(=O)OCOC(C)=O)c1ccccc1OCCOc1ccccc1N(CC(=O)OCOC(C)=O)CC(=O)OCOC(C)=O [BAPTA-AM, 1,2-Bis(2-aminophenoxy) ethane-N,N,N′,N′-tetraacetic acid tetrakis(acetoxymethyl ester)]
rescue of compound 10-induced cell death by BAPTA-AM ([1]; 10 μM BAPTA-AM added to cells treated with 10 μM compound 10): able to counteract the cell-death inducing effects of compound 10; also recorded: rescues cell death relative to compound alone; also recorded: rescues cell death due to compound 10

CSCC[C@H](NC(=O)[C@H](CCCNC(=N)N)NC(=O)[C@H](CO)NC(=O)[C@@H](NC(=O)[C@H](CCCNC(=N)N)NC(=O)[C@H](CC(C)C)NC(=O)[C@H](CCCNC(=N)N)NC(=O)[C@@H](NC(=O)CNC(=O)[C@H](CC(C)C)NC(=O)[C@H](CCCNC(=N)N)NC(=O)[C@H](CCCCN)NC(=O)[C@H](CCCNC(=N)N)NC(=O)[C@H](CCCNC(=N)N)NC(=O)[C@H](CCCNC(=N)N)NC(=O)[C@H](CCCNC(=N)N)NC(=O)[C@H](CCCNC(=N)N)NC(=O)[C@H](CCCNC(=N)N)NC(=O)[C@H](CCCNC(=N)N)NC(=O)[C@H](CCCCNC(=O)CCCCCNC(=O)c1ccc2c(c1)C(=O)OC21c2ccc(O)cc2Oc2cc(O)ccc21)NC(C)=O)C(C)C)C(C)C)C(=O)N[C@@H](CC(C)C)C(N)=O [Compound 5] (Ac-K([Ahx-5FAM])RRRRRRRKRLGVRLRVSRML-NH2)
growth inhibition of SSP-25 cells [2]: strongest inhibitory effect, regardless of concentration
efficacy in acidified media ([1]; 30 μM added at 72 hours to previously untreated cells): efficacy of compound 5 in acidified media
cell death kinetics (cell index) ([1]; 30 μM compound 5 added at 20 hours): acute cell death kinetics
cell death (CytoTox Red staining) in HeLa cells [3]: little cell death is generated in the HeLa cells compared to the SSP-25 cells
cell death (CytoTox Red staining) in SSP-25 cells [4]: greatest efficacy in the SSP-25 cells
rescue of etoposide-induced growth defect of Blm cells (percent confluence) ([5]; 5 μM etoposide and 10 μM compound 5, comparable to PBS): able to rescue the hypersensitivity of a Bloom's cell line (GM08505) to a genotoxic stress (etoposide); also recorded: suppression of cell growth defects induced by etoposide
increase of Kd when calcium (Ca2+) raised from 0 to 1 mM [6]: 3.4 fold
cell death of PC3 cells (cell index) [7]: acute cell death kinetics; also recorded: highly potent
PC3 cells eliminated ([7]; 100 μM more at 84 and 124 hours, compared to compound 6 and PBS controls): over 75%

N.N.N.N.N.N.N.N.N.N.N.N.N.N.[Cl-].[Cl-].[Cl-].[Cl-].[Cl-].[Cl-].[O-2].[O-2].[Ru+3].[Ru+3].[Ru+4] [Ruthenium red, ammoniated ruthenium oxychloride]
rescue of compound 10-induced cell death by ruthenium red [1]: able to counteract the cell-death inducing effects of compound 10; also recorded: rescues cell death relative to compound alone
rescue of compound 10-induced cell death by ruthenium red ([1]; listed as ruthenium red): rescues cell death due to compound 10

COc1cc([C@@H]2c3cc4c(cc3[C@@H](O[C@@H]3O[C@@H]5CO[C@@H](C)O[C@H]5[C@H](O)[C@H]3O)[C@H]3COC(=O)[C@H]23)OCO4)cc(OC)c1O [etoposide, reference compound]
growth of Blm cells (percent confluence) ([5]; 5 μM etoposide alone): growth of the Blm cells was affected

Ac-K(C6_5FAM)-QSLRLGLSRLARVKRLHPGARRRRRRRR-NH2 (Ac-K(C6_5FAM)QSLRLGLSRLARVKRLHPGARRRRRRRR-NH2) [Compound 1]
growth inhibition of SSP-25 cells [2]: dose-dependent effect on the growth of SSP-25
percent confluence of SSP-25 cells [8]: decreased the percent confluence of the cells

KQSLRLGLSRLARVKRLHPGARRRRRRRR [Compound 3]
growth inhibition of SSP-25 cells [2]: dose-dependent effect on the growth of SSP-25
